Assay: xn = mol fraction of the nth substance listed
Settings: 100 kPa, Liquid; for electrical conductivity: Alternating current cell with electrodes; for mass density: Vibrating tube method; for viscosity: Capillary tube (Ostwald / Ubbelohde) method

CCCC[N+]1(C)CCCC1.N#CN=C=[N-] [1-butyl-1-methylpyrrolidinium dicyanamide] + O=C1CCCO1
electrical conductivity [S/m]
Settings	Frequency=0.0005 MHz	Frequency=0.001 MHz	Frequency=0.0015 MHz	Frequency=0.002 MHz	Frequency=0.0025 MHz	Frequency=0.003 MHz	Frequency=0.00347222 MHz	Frequency=0.01 MHz
298.15 K, x1 = 0.1449	–	–	–	–	–	–	–	2.51
298.15 K, x1 = 0.1859	–	–	–	–	–	–	–	2.68
298.15 K, x1 = 0.2493	–	–	–	–	–	–	–	2.614
298.15 K, x1 = 0.3029	–	–	–	–	–	–	–	2.54
298.15 K, x1 = 0.3845	–	–	–	–	–	–	–	2.36
298.15 K, x1 = 0.4985	–	–	–	–	–	–	–	2.08
298.15 K, x1 = 0.6954	–	–	–	–	–	–	–	1.68
298.15 K, x1 = 0.9013	–	–	–	–	–	–	–	1.39
298.15 K, x1 = 1	–	–	–	–	–	–	–	1.318
303.15 K, x1 = 0.0463	1.56	1.57	1.57	1.57	1.57	1.58	1.58	–
303.15 K, x1 = 0.0987	2.36	2.37	2.37	2.38	2.38	2.38	2.38	–
303.15 K, x1 = 0.1449	2.71	2.71	2.71	2.71	2.71	2.71	2.71	–
303.15 K, x1 = 0.1859	2.87	2.88	2.89	2.89	2.89	2.89	2.9	–
303.15 K, x1 = 0.2493	2.85	2.85	2.85	2.85	2.85	2.85	2.85	–
303.15 K, x1 = 0.3029	2.78	2.78	2.78	2.79	2.79	2.79	2.79	–
303.15 K, x1 = 0.3845	2.608	2.612	2.614	2.616	2.616	2.617	2.617	–
303.15 K, x1 = 0.4985	2.33	2.33	2.33	2.33	2.33	2.33	–	–
303.15 K, x1 = 0.6954	1.908	1.909	1.91	1.911	1.911	1.911	–	–
303.15 K, x1 = 0.9013	1.602	1.604	1.605	1.606	1.606	1.607	–	–
303.15 K, x1 = 1	1.525	1.526	1.526	1.527	1.527	1.527	–	–

Settings	electrical conductivity, 303.15 K [S/m]	mass density, 298.15 K [kg/m3]	viscosity, 303.15 K [mPa·s]
x1 = 0.0463	1.58	–	–
x1 = 0.0987	2.38	1103.29	2.56
x1 = 0.1449	2.71	–	–
x1 = 0.1859	2.9	1087.38	3.64
x1 = 0.2493	2.86	–	–
x1 = 0.3029	2.79	1069.77	5.53
x1 = 0.3845	2.619	–	–
x1 = 0.4985	2.33	1047.53	9.91
x1 = 0.6954	1.912	1031.19	16.03
x1 = 0.9013	1.608	1018.43	23.88
x1 = 1	1.527	1013.45	28.53

From the NIST ThermoML archive (doi:10.1016/j.jct.2015.08.014)
